Experimental data reported in US20050037446A1, “Agents that recognize src when phosphorylated at serine 17” (priority 2001, published 2005).

Experiments:
Rap1 [1] = assay: Rap1 activation affinity assay (GST-RalGDS pull-down), NIH3T3 cells; assay type: cell-based
Experimental: NIH3T3 cells (American Type Culture Collection, ATCC, Manassas, Va.) were cultured in Dulbecco-Modified Eagle Medium (DMEM) plus 10% fetal calf serum, penicillin/streptomycin, and L-glutamine at 37° C. in 5% CO2. Cells were maintained in serum-free DMEM for 16 hours at 37° C. in 5% CO2 prior to treatment. NIH3T3 cells were trasfected with Flag-Rap1 (see Vossler et al., Cell, 89:73-82, 1997) or stimulated with Forskolin (10 μM, Cal Biochem, Riverside, Calif.) for five minutes. Forskolin treated cells received either a pretreatment or post-treatment with 10 μM N-[2(Bromocimamylamino) ethyl]-5-isoquinolinesulfonamide (H89) (Cal Biochem, Riverside, Calif.) for 20 minutes.
Cells were co-transfected with Flag-Rap1 at seventy to eighty percent confluency with the cDNA using a Lipofectamine 2000 kit (Gibco BRL, Rockville, Md.) according to the manufacturer's instructions. The control vector, pcDNA3 (Invitrogen Corp.), was included in each set of transfections to assure that each plate received the same amount of DNA. Following transfection, cells were allowed to recover in serum containing media for 24 hours. Cells were then starved overnight in serum-free DMEM before treatment and lysis.
After treatment, cells were lysed in ice-cold lysis buffer (50 mM Tris-HCL (pH 8.0), 10% glycerol, 1% nonidet P40, 200 mM NaCl, 2.5 mM MgCl2, 1 mM phenylmethylsulfonyl fluoride, 1 μM leupeptin, 10 μln soybean trypsin inhibitor, 10 mM NaF, 0.1 μM aprotinin, and 1 mM NaVO4). Nuclei and cytoskeleton were removed from equivalent amounts of lysate by centrifugation at 5,000 rpm for five minutes. The supernatant was centrifuged at 100,000×g for one hour at 4° C. and, the resultant membrane was resuspended in cold lysis buffer. Aliquots of the membrane fraction were analyzed for the presence of C3G by Western blotting. The cytosolic or membrane fractions of treated or untreated cells were mixed with equivalent amounts of lysates from untreated Flag-Rap1 transfected cells. The mixture was incubated at 37° C. for five minutes and equal amounts of lysate were analyzed using the Rap1 activation assay to monitor Flag-Rap 1 activation by Gst-RalGDS.
The Rap1 activation affinity assay was performed as follows. A GST fusion protein of the Rap1-binding domain of RalGDS (GST-RalGDS, Dr. Bos, Utrecht University, The Netherlands) was expressed in E. coli following induction by isopropyl-1thio-β-D-galactopyranoside. Active Rap1 was isolated as previously described (Franke et al., EMBO J. 16:252-9, 1997). Briefly, equivalent amounts of supernatants (500 μg) were incubated with GST-RalGDS-Rap1 binding domain coupled to glutathione beads. Following a one hour incubation at 4° C., beads were pelleted and rinsed threes times with ice-cold lysis buffer. […] Proteins were detected using enhanced chemiluminescence.

Rap1 [2] = assay: Rap1 activation affinity assay, Hek293 cells; assay type: cell-based; conditions: 10 μM; for Effect of inhibitor on isoproterenol's activation of endogenous Rap1: 20 minutes
Experimental: The Rap1 activation affinity assay was performed as follows. A GST fusion protein of the Rap1-binding domain of RalGDS (GST-RalGDS, Dr. Bos, Utrecht University, The Netherlands) was expressed in E. coli following induction by isopropyl-1thio-β-D-galactopyranoside. Active Rap1 was isolated as previously described (Franke et al., EMBO J. 16:252-9, 1997). Briefly, equivalent amounts of supernatants (500 μg) were incubated with GST-RalGDS-Rap1 binding domain coupled to glutathione beads. Following a one hour incubation at 4° C., beads were pelleted and rinsed threes times with ice-cold lysis buffer. The protein was eluted from the beads using 2× Laemmli buffer and applied to a 12% SDS-polyacrylamide gel. Proteins were tansferred to PVDF membrane (Millipore Corporation, Bedford, Mass.), blocked in 5% milk for one hour and, probed with either α-Rap1/Krev-1 (Santa Cruz Biotechnology Inc., Santa Cruz, Calif.) or Flag antibody (Sigma, St Louis, Mo.) overnight at 4° C., followed by an HRP-conjugated anti-rabbit secondary antibody (or anti-mouse secondary for anti-Flag western blots). Proteins were detected using enhanced chemiluminescence.
Hek293 cells (ATCC) were cultured in DMEM plus 10% fetal calf serum, penicillin/streptomycin, and L-glutamine at 37° C. in 5% CO2. Cells were maintained in serum-free DMEM for 16 hours at 37° C. in 5% CO2 prior to treatment with H89 (10 μM) or PP2 (10 μM) for 20 minutes, and then treated with isoproterenol (10 μM) for 5 minutes. Cell lysates were prepared, and a Rap1 activation affinity assay performed as described in Example 1. […] This activation required Src family kinases (SFKs) as it was blocked by the inhibitor PP2.
The mechanism of ERK activation by isoproterenol in Hek293 cells was determined as follows. Hek293 cells were transfected with Flag-Rap1 along with pcDNA3, SrcS17A, SrcS17D, or SrcWT as described above. […]

O=S(=O)(NCCNC/C=C/c1ccc(Br)cc1)c1cccc2cnccc12 [H89, N-[2(Bromocimamylamino)ethyl]-5-isoquinolinesulfonamide]
Effect on Forskolin activation of Flag-Rap1 in trans (Rap1 [1]; added ten minutes after Forskolin): still able to activate Flag-Rap1 in trans
Effect on Forskolin activation of Flag-Rap1 in trans (Rap1 [1]; pretreatment, 10 μM, 20 minutes): blocked
Effect of inhibitor on isoproterenol's activation of endogenous Rap1 (Rap1 [2]): PKA-dependent

CC(C)(C)n1nc(-c2ccc(Cl)cc2)c2c(N)ncnc21 [PP2, 4-amino-5-(4-chlorophenyl)-7-(t-butyl)pyazolo[3,4-d]pyrimidine]
Effect of inhibitor on isoproterenol's activation of endogenous Rap1 (Rap1 [2]): blocked

CC(C)NCC(O)c1ccc(O)c(O)c1 (stereo not drawn) [isoproterenol]
Activation of endogenous Rap1 (Rap1 [1]; NIH3T3 cells, 10 μM, five minutes): activated Rap1
Activation of endogenous Rap1 (Rap1 [2]; 5 minutes): activated endogenous Rap1
